Details of the series: species or system White New Zealand male rabbits. The note with it: rabbit, in vivo, sc, 18 mg/kg. Here is the method:
The study was performed in 6 White New Zealand male rabbits (body weight: 3.63±0.17 kg; min-max 3.47-3.88 kg) and included MS1 and MS2 loaded at 40 mg/mL of teicoplanin (Sigma, T-0578).
Briefly, teicoplanin was reconstituted in water for injection at the concentration of […] (100 mL). Sterile dry beads (≈6 mL in 5% glucose) were hydrated/loaded in the teicoplanin solution (20 mL) with continuous agitation on rotating wheel (≈30 rpm). After 20 min, the supernatant was retrieved and kept for drug quantification. Microspheres (MS1 and MS2) were then washed in water, and kept on shell until the time of administration. At the time of injection, MS were suspended in saline and the appropriate volume of bead (≈4 mL) suspension was sampled for injection at a ratio of 2:1 MS/saline (Table 7). Each microsphere was administered once subcutaneously at the same dose of drug at two injection sites to 2 animals. Teicoplanin control (Sigma, T-0578) was administered once in one animal and repeated daily in another animal. […]
A vascular access was gained in the auricular artery for blood sampling and in auricular vein for perfusion. […] The lowest limit of quantification of the method (LOQ) is 2.0 mg/L. The results of plasmatic assay of teicoplanin are reported in table 8 and in FIG. 7.

Substance teicoplanin [Injectable teicoplanin] showed a Teicoplanin serum concentration of less than 2.0 mg/L.
